Experimental findings from publication PMC7808747, “Design, synthesis, and in vitro evaluation of BP-1-102 analogs with modified hydrophobic fragments for STAT3 inhibition” (Journal of Enzyme Inhibition and Medicinal Chemistry, 2021) are described below.

Structures are written as SMILES. Entries after “also recorded” stand apart in the source; their conditions may differ. Like-named read-outs stand apart in the source and are kept apart here.

One data set deals with TC-1 cells. As to the kind of experiment: Annexin V / propidium iodide FACS, TC-1. The conditions noted are these: TC-1, 24 h.
Another data set relates to MDA-MB-231 cells. As to the kind of experiment: Annexin V / propidium iodide FACS, MDA-MB-231. The conditions noted are these: MDA-MB-231, 0, 5, 10, 20, 50 µM, 24 h. It counts as cell-based, human.
Data set [1] has as its system mouse lung TC-1 cancer cell line. Description: MTT cytotoxicity assay, TC-1. It counts as cell-based. Particulars: for IC50: Mus musculus, read-out: IC50±SD TC-1; for cytotoxic effect in TC-1 (in words): 0–50 µM, 24 h. The method, then:
(§1) Cells were seeded at the density of 2000 cells per well (96-well F microplates; Nunc, Roskilde, Denmark). The following day, the tested compounds were added. In the next 24 h, MTT (3-(4,5-dimethylthiazol-2-yl)-2,5-diphenyltetrazolium bromide) was added. After 6 h, DMF (dimethylformamide) was added, and after additional 24 h, absorbance was measured at 560 nm by a microplate reader.

In data set [2] the test system is human breast cancer MDA-MB-231 cell line. As to the kind of experiment: Resazurin cytotoxicity assay, MDA-MB-231. It counts as cell-based. The conditions noted are these: for cytotoxic effect in MDA-MB-231 (in words): 0, 5, 10, 20, 50 µM. On the procedure: (§2) The cells were treated with the compounds at concentrations 0, 5, 10, 20, and 50 µM for 24 h, and the cytotoxicity was estimated by the resazurin assay.
To estimate IC50 of 6 and 14, MDA-MB-231 cells were treated with 1 (0, 2, 5, 10, 15, 20, 25, 30, 40, and 50 µM), 6 (0, 5, 10, 20, 25, 30, 40, 50, 70, and 100 µM), and 14 (0, 20, 40, 50, 60, 70, 80, 100, 150, and 200 µM) for 24 h.
(§3) The resazurin reduction assay[34] was performed as described previously. Briefly, cells were seeded onto a 96-well plate (2000 cells per well) in hexaplicate and the following day treated with the tested compounds (dissolved in DMSO as 50 mM stock) in a concentration range as indicated. After 24 h, 200 μl of culture medium of each well was exchanged for 100 μl of resazurin (stock 30 mg/ml; Sigma, St. Louis, MO) diluted 10 times in the culture medium, and the cells were incubated at 37 °C for 1–3 h. Reading of fluorescence was done using an Envision reader (PerkinElmer, Waltham, MA). Absolute values of fluorescence were related to the values of control/untreated cells. To estimate the cytotoxic concentration (half maximal inhibitory concentration, IC50), log-scale data were processed in GraphPad Prism software (La Jolla, CA) using nonlinear fit curve.
(In general: Alamar Blue is a resazurin reagent that responds to reducing activity.)

In another data set the test system is RPE-1. As to the kind of experiment: Resazurin assay, RPE-1 (Table 2). It counts as cell-based. The conditions noted are these: Homo sapiens, resazurin assay (footnote a), read-out: IC50±SD RPE-1.
Data set [3] deals with prostate carcinoma DU-145. As to the kind of experiment: Resazurin cytotoxicity assay, DU-145. Particulars: Homo sapiens, DU-145, read-out: IC50±SD DU-145. On the procedure: (§4) Furthermore, the cytotoxicity of compound 6 was compared to BP-1-102 (1) in human glioblastoma cell lines U-87 and T98 in concentration range 0–80 µM for 24 h using the crystal violet assay.
as §3

The subject of a further data set is TRAMP-C2 cells. As to the kind of experiment: Annexin V / propidium iodide FACS, TRAMP-C2. It counts as cell-based, mouse. Particulars: TRAMP-C2, 24 h.
In data set [4] the test system is mouse prostate TRAMP-C2 cancer cell line. As to the kind of experiment: MTT cytotoxicity assay, TRAMP-C2. It counts as cell-based. Particulars: for IC50: Mus musculus, read-out: IC50±SD TRAMP-C2; for cytotoxic effect in TRAMP-C2 (in words): 0–50 µM, 24 h. On the procedure: as §1
(Tetrazolium dyes change colour on reduction, which living cells bring about.)

Data set [5] has as its system STAT3 Y705 phosphorylation (pY705). Description: STAT3 pY705 immunoblotting, MDA-MB-231. It counts as cell-based, human. Particulars: MDA-MB-231, micromolar concentration range, 4 h. On the procedure: The cells were exposed to BP-1-102 (1), compounds 6 and 14 in a micromolar concentration range for 4 h, and then the levels of STAT3 pY705 and total STAT3 were probed by immunoblotting with specific antibodies. […] It can be concluded that both novel compounds 6 and 14 manifested inhibitory effects on receptor-mediated phosphorylation of Y705 of STAT3 in both human and mouse cell lines.
Cells were washed three times with PBS, harvested into 95 °C-heated Laemmli SDS sample lysis buffer (2% SDS, 50 mM Tris–Cl, 10% glycerol in double distilled H2O) and sonicated at 3 μm amplitude for 3 × 10 or 3 × 30 s with 10 or 30 s cooling intervals in a Soniprep 150 (MSE, London, UK) or Diagenode Bioruptor 300 (Diagenode, Liege, Belgium) for human and murine cell lines, respectively. Concentration of proteins was estimated by the Pierce^TM BCA Protein Assay (Thermo Scientific, Waltham, MA). DTT (100 mM) and 0.01% bromophenol blue were added to the lysates before separation by SDS-PAGE (10% gels were used). Equal protein amounts (40 or 35 μg for human or murine cell lines, respectively) were loaded into each well. Proteins were electrotransferred onto a nitrocellulose membrane (Amersham^TM Protran^TM 0.45 µm NC, GE Healthcare, Chalfont St Giles, UK) using wet transfer and detected by specific antibodies (at 4 °C overnight) combined with HRP-conjugated secondary antibodies. Peroxidase activity was detected by Amersham^TM ECL Western Blotting Detection Reagents (GE Healthcare, Chalfont St Giles, UK). GAPDH was used as a loading control.
On the technique in general: A western blot detects proteins with antibodies after separation by electrophoresis.

The subject of data set [6] is human breast adenocarcinoma MCF-7. As to the kind of experiment: Resazurin cytotoxicity assay, MCF-7. The conditions noted are these: Homo sapiens, MCF7, read-out: IC50±SD MCF-7. On the procedure:
as §4, §3

For a further data set, the system named is human glioblastoma U373. Description: Crystal violet assay, U373. The conditions noted are these: 0–50 µM, 24 h. The method, then: as §2
(§5) To determine cell viability by crystal violet assay, cells were seeded in 96-well plates at densities of 3000 (RPE-1), 5000 (U373 and T98-G), and 8000 (U-87 MG) cells per well. The next day the cells were treated with the tested compounds in triplicate in a concentration range as indicated. After 24 h, the cells in each well were washed twice with 150 µl PBS and then stained in 30 µl 0.5% w/v crystal violet in 20% methanol for 15 min. Plates were washed three times with double distilled H2O and left to dry overnight. Crystal violet was solubilised with 75 µl 0.2% Triton X-100 (Sigma, St. Louis, MO) in PBS for 15 min. Absorbance of crystal violet was measured at 595 nm using a microplate reader (Multiskan EX, Thermo Electron Corporation, Waltham, MA). Absorbance of the treated samples was expressed as a percentage of absorbance of untreated cells.

The subject of data set [7] is human immortalised retinal pigment epithelium RPE-1. Description: Crystal violet assay, RPE-1. The conditions noted are these: 0–50 µM, 24 h. On the procedure:
as §2, §5

Data set [8] deals with human glioblastoma cell line T98. As to the kind of experiment: Crystal violet assay, T98. Particulars: 0–80 µM, 24 h, compared to U-87 cells. The method, then: as §4, §5
Where [9] appears, read: Homo sapiens, MDA-MB-231, 24 h, resazurin assay, 24 h, read-out: IC50±SD MDA-MB-231.

Protocol for MDA-MB-231 cells: (§6) Cells were harvested by centrifugation, resuspended in cold PBS and again centrifuged. Cell pellets were then resuspended in Annexin V Binding Buffer (ApoFlowEx FITC Kit, ED7044, Exbio, Vestec, Czech Republic), annexin V-APC and PI were added to the cell pellet and mixed. Cells were incubated in the dark at room temperature for 15 min. After the incubation, cells were centrifuged, resuspended in Annexin V Binding Buffer and analysed by flow cytometry. Five thousand cells per sample were measured by analysing annexin V and PI using a BD FACSVerse™ flow cytometer (BD Biosciences, Franklin Lakes, NJ). Data were analysed using FlowJo 10 software (FlowJo LLC, Ashland, OR), and the percentage of viable (annexin V-negative/PI-negative) cells relative to control was plotted.
Protocol for TC-1 cells: as §6
Protocol for TRAMP-C2 cells: as §6

On to `CN(CC(=O)N(Cc1ccc(C2CCCCC2)cc1)c1ccc(C(=O)O)c(O)c1)S(=O)(=O)c1c(F)c(F)c(F)c(F)c1F` [BP-1-102 (1), 4-(N-(4-Cyclohexylbenzyl)-2-(2,3,4,5,6-pentafluoro-N-methylphenylsulfonamido)acetamido)-2-hydroxybenzoic acid, reference compound], for which the “cytotoxicity by annexin V/PI staining and FACS” value with TC-1 cells and in the data set on TRAMP-C2 cells was “confirmed” in each case. In the data set on MDA-MB-231 cells, the “cell death induction (annexin V/PI, FACS)” value is “cell death induction was confirmed”. In addition, the IC50 in data set [1] came to 7.8 ± 1.1 µM; in data set [2] (Homo sapiens, MDA-MB-231, 24 h, read-out: IC50±SD MDA-MB-231, resazurin assay, 24 h) it was 15 µM; in data set [2] (read-out: IC50±SD MDA-MB-231, resazurin assay, 24 h) it was 15 ± 3.7 µM; in the data set with RPE-1, 13.9 ± 0.2 µM; in data set [3], 18 ± 8.3 µM; in data set [4], 7.9 ± 4.5 µM. For the same molecule, the “inhibition of constitutive STAT3 Y705 phosphorylation” value in data set [5] is “inhibited constitutive STAT3 phosphorylation”.

As to `Cc1ccc(S(=O)(=O)N(C)CC(=O)N(Cc2ccccc2)c2ccc(C(=O)O)c(O)c2)cc1` [Compound 3, 4-(N-(Benzyl)-2-(N-methyl-N-(p-toluenesulfonyl))acetamido)-2-hydroxybenzoic acid], the “cytotoxic effect in MDA-MB-231 (in words)” value in [2] (24 h, resazurin assay) was “lacking any significant cytotoxicity; also recorded: complete loss of cytotoxic activity”.

With `CN(CC(=O)N(Cc1ccccc1)c1ccc(C(=O)O)c(O)c1)S(=O)(=O)c1c(F)c(F)c(F)c(F)c1F` [Compound 4, 4-(N-(Benzyl)-2-(2,3,4,5,6-pentafluoro-N-methylphenylsulfonamido)acetamido)-2-hydroxybenzoic acid], the “cytotoxic effect in MDA-MB-231 (in words)” value in data set [2] (24 h, resazurin assay) was “mild-to-negligible cytotoxicity”. In addition, the IC50 (in data set [2] (setting [9]); in the data set on RPE-1; in data set [3]; in data set [6]) was more than 50 µM in each case.

On to `Cc1ccc(S(=O)(=O)N(C)CC(=O)N(Cc2ccc(C(C)(C)C)cc2)c2ccc(C(=O)O)c(O)c2)cc1` [Compound 5, 4-(N-(4-tert-Butylbenzyl)-2-(N-methyl-N-(p-toluenesulfonyl))acetamido)-2-hydroxybenzoic acid], for which the “cytotoxic effect in MDA-MB-231 (in words)” value in data set [2] (24 h, resazurin assay) was “mild-to-negligible cytotoxicity; also recorded: complete loss of cytotoxic activity”.

For the molecule `CN(CC(=O)N(Cc1ccc(C(C)(C)C)cc1)c1ccc(C(=O)O)c(O)c1)S(=O)(=O)c1c(F)c(F)c(F)c(F)c1F` [Compound 6, 4-(N-(4-tert-Butylbenzyl)-2-(2,3,4,5,6-pentafluoro-N-methylphenylsulfonamido)acetamido)-2-hydroxybenzoic acid], the “cytotoxicity by annexin V/PI staining and FACS” value in the data set on TC-1 cells and in the data set on TRAMP-C2 cells was “confirmed” in each case. For the same molecule, the “cell death induction (annexin V/PI, FACS)” value in the data set on MDA-MB-231 cells is given as “cell death induction was confirmed”. Besides, in [1], the “cytotoxic effect in TC-1 (in words)” value is given as “cytotoxic activity comparable to BP-1-102 (1)”. The IC50 in [1] amounted to 6.2 ± 1.1 µM; in data set [2] (setting [9]), 26.2 µM; in [2] (resazurin assay, 24 h, read-out: IC50±SD MDA-MB-231) it was 26.2 ± 5.6 µM; with RPE-1, 24.5 ± 2.6 µM; in data set [3], 34 ± 2.6 µM; in [4] (MTT assay), 14.5 ± 13.4 µM. The half-maximal inhibitory concentration (IC50) in data set [6] was determined as 19.6 ± 3.6 µM. Besides, the “cytotoxic activity in U373 (in words)” value in the data set with human glioblastoma U373 was “concentration-dependent cytotoxic activity”. Moreover, in data set [2] (MDA-MB-231, 24 h, resazurin assay), the “concentration from which the compound was cytotoxic” value is 10 µM. Moreover, in data set [4] (MTT assay), the “cytotoxic effect in TRAMP-C2 (in words)” value is listed as “cytotoxic activity comparable to BP-1-102 (1)”. Moreover, in data set [7], the “cytotoxic activity in RPE-1 (in words)” value is on record as “concentration-dependent cytotoxic activity”. Further, the “cytotoxicity in T98 (in words)” value in data set [8] is “remarkable resistance”. In addition, the “inhibition of constitutive STAT3 Y705 phosphorylation” value in [5] is “inhibited constitutive STAT3 phosphorylation”.

Take `COc1ccc(CN(C(=O)CN(C)S(=O)(=O)c2c(F)cc(F)cc2F)c2ccc(C(=O)O)c(O)c2)cc1` [Compound 7, 4-(N-(4-Methoxybenzyl)-2-(2,4,6-trifluoro-N-methylphenylsulfonamido)acetamido)-2-hydroxybenzoic acid]: the “cytotoxic effect in MDA-MB-231 (in words)” value in data set [2] (24 h, resazurin assay) is on record as “lacking any significant cytotoxicity; also recorded: complete loss of cytotoxic activity”.

Take `COc1ccc(CN(C(=O)CN(C)S(=O)(=O)c2c(F)c(F)c(F)c(F)c2F)c2ccc(C(=O)O)c(O)c2)cc1` [Compound 8, 4-(N-(4-Methoxybenzyl)-2-(2,3,4,5,6-pentafluoro-N-methylphenylsulfonamido)acetamido)-2-hydroxybenzoic acid]: in data set [1], the “cytotoxic effect in TC-1 (in words)” value is listed as “mild cytotoxic effect; also recorded: mild cytotoxicity”. In addition, in the data set with human glioblastoma U373, the “cytotoxic activity in U373 (in words)” value was “no cytotoxic activity”. The “cytotoxic effect in MDA-MB-231 (in words)” value in data set [2] (24 h, resazurin assay) was “lacking any significant cytotoxicity; also recorded: no cytotoxic activity”. Further, the “cytotoxic effect in TRAMP-C2 (in words)” value in [4] (MTT assay) is on record as “mild cytotoxic effect; also recorded: mild cytotoxicity”.

Consider `CN(CC(=O)N(Cc1ccc(C(F)(F)F)cc1)c1ccc(C(=O)O)c(O)c1)S(=O)(=O)c1ccccc1` [Compound 9, 4-(N-(4-Trifluoromethylbenzyl)-2-(N-methylphenylsulfonyl)acetamido)-2-hydroxybenzoic acid], for which the “cytotoxic effect in MDA-MB-231 (in words)” value in [2] (24 h, resazurin assay) is listed as “complete loss of cytotoxic activity”.

A word on the IC50: it is the concentration at which inhibition is half-maximal.
